# Assays:
# [1] = Acidic dissociation constant, pKa of compound at 10 uM by UV/Vis spectroscopy; format: physicochemical
# [2] = Basic dissociation constant, pKa of compound at 10 uM by UV/Vis spectroscopy; format: physicochemical
# [3] = biological target: T1, High affinity cGMP-specific 3',5'-cyclic phosphodiesterase 9A (Homo sapiens, UniProt O76083); assay: Inhibition of PDE9 (unknown origin) at 10 uM using [3H]-cGMP as substrate after 1 hr by scintillation counting method relative to control
# [4] = biological target: T1, High affinity cGMP-specific 3',5'-cyclic phosphodiesterase 9A; assay: Inhibition of PDE9 (unknown origin) using [3H]-cGMP as substrate after 1 hr by scintillation counting method
# T1 sequence (O76083 whole entry): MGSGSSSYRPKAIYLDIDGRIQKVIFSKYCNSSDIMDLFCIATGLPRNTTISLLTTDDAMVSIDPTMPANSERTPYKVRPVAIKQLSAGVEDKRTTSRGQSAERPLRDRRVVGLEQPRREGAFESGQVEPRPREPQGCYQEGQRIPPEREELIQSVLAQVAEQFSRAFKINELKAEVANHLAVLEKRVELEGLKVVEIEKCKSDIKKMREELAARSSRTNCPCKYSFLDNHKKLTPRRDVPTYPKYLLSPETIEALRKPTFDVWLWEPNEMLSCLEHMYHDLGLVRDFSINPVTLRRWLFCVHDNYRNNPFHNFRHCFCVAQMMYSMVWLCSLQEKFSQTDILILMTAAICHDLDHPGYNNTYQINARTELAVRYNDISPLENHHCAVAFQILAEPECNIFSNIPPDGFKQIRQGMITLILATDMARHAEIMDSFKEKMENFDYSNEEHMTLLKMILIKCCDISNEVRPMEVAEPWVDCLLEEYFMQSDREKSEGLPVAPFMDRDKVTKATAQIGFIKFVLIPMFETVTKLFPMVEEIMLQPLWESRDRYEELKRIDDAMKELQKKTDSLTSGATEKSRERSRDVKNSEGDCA
SMILES,inhibition [3],IC50 [4],other results
C[C@@H]1CN(Cc2ncccn2)C[C@@]1(F)c1nc2c(cnn2C2CCOCC2)c(=O)[nH]1,–,–,pKa at 10 µM [1]: 8.4; pKa at 10 µM [2]: 5.6
Cc1ncc(CN2C[C@@H](C)[C@](F)(c3nc4c(cnn4C4CCOCC4)c(=O)n3C)C2)cn1,14%,–,–
Cc1cnc(CN2C[C@@H](C)[C@](F)(c3nc4c(cnn4C4CCOCC4)c(=O)n3C)C2)cn1,22%,–,–
Cc1ncc(CN2C[C@@H](C)[C@H](c3nc4c(cnn4C4CCOCC4)c(=O)[nH]3)C2)cn1,–,36 nM,–
Cc1cnc(CN2C[C@@H](C)[C@H](c3nc4c(cnn4C4CCOCC4)c(=O)[nH]3)C2)cn1,–,59 nM,–
Cc1cnc(CN2C[C@@H](C)[C@H](c3nc4c(cnn4C4CCOCC4)c(=O)n3C)C2)cn1,66%,–,–
C[C@@H]1CN(Cc2ccc(F)cc2)C[C@H]1c1nc2c(cnn2C2CCOCC2)c(=O)[nH]1,–,17 nM,–
C[C@@H]1CN(Cc2ncccn2)C[C@H]1c1nc2c(cnn2C2CCOCC2)c(=O)[nH]1 [EDELINONTRINE],–,–,pKa at 10 µM [1]: 9.6; pKa at 10 µM [2]: 6.8

# — ChEMBL document CHEMBL4257517, “Elucidation of fluorine's impact on pKa and in vitro Pgp-mediated efflux for a series of PDE9 inhibitors” (Medchemcomm, 2018)
